# Data taken from patent US20100233746A1, “Inflammation and Oxidative Stress Level Assay” (priority 2007, published 2010).
# Test system: rats
# Test: nephrotoxicity model: eicosanoids in plasma of rats receiving puromycin, LC-MS/MS
# Format: in vivo
# Conditions: 4 groups receiving different dosages of puromycin, FIG. 4
# Experimental: To determine free fatty acid metabolites in various biological materials, a small amount of sample (20 μL) was applied onto a filter spot containing stable isotopes for the various metabolites in a microtiter plate and extracted in aqueous methanol without further derivatization as described in FIG. 1. Separation of metabolites was done on a RP-HPLC (Zorbax Eclipse C18, 3.0×100 mm, 3.5 μm) column after injection of 20 μL extract using an Agilent 1100 system (Agilent Technologies) with an HTC PAL autosampler (CTC Analytics). Mobile phase compositions were A: H2O with 0.05% (v/v) formic acid and B: acetonitrile with 0.05% (v/v) formic acid. Flow rate was constant at 500 μL/min, metabolites were separated by gradient elution. Detection was done by MRM transitions in negative detection mode using an API4000Qtrap® equipped with an ESI source (Applied Biosystems). Quantification of metabolites was performed with Analyst v.1.4.2 quantitation.
# Test cases of disease states show an increase of free fatty acids, prostaglandins and hydroxylated species in conjunction with pulmonary inflammations, prostate cancer and cardiovascular disease. […]
# Plasma samples obtained from 4 groups of rats receiving different dosages of puromycin were analyzed.
# FIGS. 4a, 4b, 4c and 4d. […] The concentrations of 4 different eicosanoids (as indicated) in rat plasma samples have been determined and normalized.
smiles,measurement,value
COc1ccc(C[C@H](N)C(=O)N[C@H]2[C@@H](O)[C@H](n3cnc4c(N(C)C)ncnc43)O[C@@H]2CO)cc1 [puromycin],"cyclooxygenase and lipoxygenase activity (concentrations of 4 different eicosanoids in rat plasma, normalized)",Increased cyclooxygenase and lipoxygenase activity
